For this test, the target named is MYT1 protein (Homo sapiens (Human), UniProt Q99640). The experiment in a line: Test for binding to ATP binding site of MYT1 (Kinase Tracer 178 / Eu-Anti-GST antibody TR-FRET). The following applies: ATP binding site of MYT1, 30 minutes at room temperature.
Chain of MYT1 protein (Q99640 whole entry): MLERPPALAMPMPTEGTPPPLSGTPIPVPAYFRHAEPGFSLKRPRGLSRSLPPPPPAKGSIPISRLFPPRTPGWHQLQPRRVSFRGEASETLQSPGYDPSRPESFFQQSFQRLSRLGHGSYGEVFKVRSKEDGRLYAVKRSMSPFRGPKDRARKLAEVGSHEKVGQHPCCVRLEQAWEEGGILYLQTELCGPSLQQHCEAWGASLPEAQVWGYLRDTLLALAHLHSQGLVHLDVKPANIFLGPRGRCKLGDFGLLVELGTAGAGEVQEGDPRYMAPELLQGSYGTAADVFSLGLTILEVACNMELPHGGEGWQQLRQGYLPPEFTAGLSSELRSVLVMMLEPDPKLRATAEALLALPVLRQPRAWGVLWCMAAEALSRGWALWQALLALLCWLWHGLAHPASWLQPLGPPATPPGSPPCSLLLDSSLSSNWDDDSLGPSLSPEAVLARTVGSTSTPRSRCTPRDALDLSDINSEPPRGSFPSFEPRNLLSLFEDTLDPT

In turn, `CC[C@H](C)Oc1cc2c(-c3ccc(F)c4[nH]ncc34)c(N)c(=O)[nH]c2c2cccnc12` [Compound C34, 3-Amino-6-[(2S)-butan-2-yl]oxy-4-(7-fluoro-1H-indazol-4-yl)-1H-1,7-phenanthrolin-2-one] came in with an IC50 of 3.7 nM. The result for `Nc1c(-c2ccc(Cl)c3[nH]ncc23)c2cc(Cl)cc(Br)c2[nH]c1=O` [Compound A17, 3-Amino-8-bromo-6-chloro-4-(7-chloro-1H-indazol-4-yl)-1H-quinolin-2-one] reads 27 nM; that for `O=c1[nH]c2ccccc2c(-c2cccc3[nH]ncc23)c1O` [Compound E2, 3-Hydroxy-4-(1H-indazol-4-yl)-1H-quinolin-2-one], 840 nM. The figure for `Nc1c(-c2ccc(F)c3[nH]ncc23)c2cc(OCC(F)(F)F)c3ncccc3c2[nH]c1=O` [Compound C15, 3-Amino-4-(7-fluoro-1H-indazol-4-yl)-6-(2,2,2-trifluoroethoxy)-1H-1,7-phenanthrolin-2-one] is 2.6 nM; for `Nc1c(-c2ccc(F)c3[nH]ncc23)c2cc(I)c3cc(Cl)ccc3c2[nH]c1=O` [Compound B13, 3-Amino-8-chloro-4-(7-fluoro-1H-indazol-4-yl)-6-iodo-1H-benzo[h]quinolin-2-one] it is 85 nM. The result for `Nc1c(-c2ccncc2)c2cc(Cl)ccc2[nH]c1=O` [Compound A44, 3-Amino-6-chloro-4-pyridin-4-yl-1H-quinolin-2-one] reads 5000 nM; that for `Nc1c(-c2ccc(Cl)c3[nH]ncc23)c2cc(C3CCCC3)c3ncccc3c2[nH]c1=O` [Compound C151, 3-Amino-4-(7-chloro-1H-indazol-4-yl)-6-cyclopentyl-1H-1,7-phenanthrolin-2-one], 10 nM. In the case of `Nc1c(-c2ccc(F)c3[nH]ncc23)c2cc(N3CCOCC3)c3ncccc3c2[nH]c1=O` [Compound C122, 3-Amino-4-(7-fluoro-1H-indazol-4-yl)-6-morpholin-4-yl-1H-1,7-phenanthrolin-2-one 2,2,2-trifluoroacetate], the IC50 stood at 4.5 nM.

Regarding `Nc1c(-c2ccc(F)c3[nH]ncc23)c2cc(N3CC4(COC4)C3)c3cccnc3c2[nH]c1=O` [Compound D10, 3-Amino-4-(7-fluoro-1H-indazol-4-yl)-6-(2-oxa-6-azaspiro[3,3]heptan-6-yl)-1H-1,10-one], the IC50 stood at 3.9 nM. In turn, `Nc1c(-c2ccc(F)c3[nH]ncc23)c2cc(N3CCCC3)c3ncccc3c2[nH]c1=O` [Compound C113, 3-Amino-4-(7-fluoro-1H-indazol-4-yl)-6-pyrrolidin-1-yl-1H-1,7-phenanthrolin-2-one] gave an IC50 of 4.6 nM. The figure for `Nc1c(-c2c(F)ccc3[nH]ncc23)c2cc(Cl)ccc2[nH]c1=O` [Compound A67, 3-Amino-6-chloro-4-(5-fluoro-1H-indazol-4-yl)-1H-quinolin-2-one] is 130 nM. The result for `Cc1cc2c(-c3ccc(F)c4[nH]ncc34)c(N)c(=O)[nH]c2c2c1cnn2C` [Compound I2, 7-Amino-6-(7-fluoro-1H-indazol-4-yl)-1,4-dimethyl-9H-pyrazolo[4,3-h]quinolin-8-one] reads 16 nM; that for `Nc1c(-c2ccc(F)c3[nH]ncc23)c2cc(OC3CC(F)(F)C3)c3ncccc3c2[nH]c1=O` [Compound C23, 3-Amino-6-(3,3-difluorocyclobutyl)oxy-4-(7-fluoro-1H-indazol-4-yl)-1H-1,7-phenanthrolin-2-one], 5 nM. In the case of `Cc1cc2ncccc2c2[nH]c(=O)c(N)c(-c3cc(F)c(F)c4[nH]ncc34)c12` [Compound C218, 3-Amino-4-(6,7-difluoro-1H-indazol-4-yl)-5-methyl-1H-1,7-phenanthrolin-2-one], the IC50 is 0.43 nM. `Nc1c(-c2ccc(Cl)c3[nH]ncc23)c2cc(OCC3CC3)c(F)cc2[nH]c1=O` [Compound A3, 3-Amino-4-(7-chloro-1H-indazol-4-yl)-6-(cyclopropylmethoxy)-7-fluoro-1H-quinolin-2-one]: the IC50 amounted to 8.5 nM.

`CC(C)Oc1cc2c(-c3ccc(F)c4[nH]ncc34)c(N)c(=O)[nH]c2c2nccnc12` [Compound G15, 8-Amino-7-(7-fluoro-1H-indazol-4-yl)-5-propan-2-yloxy-10H-pyrido[2,3-f]quinoxalin-9-one] displayed an IC50 of 1.6 nM. The figure for `Nc1c(-c2ccc(F)c3[nH]ncc23)c2cc(C3CC3)c3cncnc3c2[nH]c1=O` [Compound J3, 8-Amino-5-cyclopropyl-7-(7-fluoro-1H-indazol-4-yl)-10H-pyrido[3,2-h]quinazolin-9-one] is 3.5 nM. The result for `Nc1c(-c2ccc(F)c3[nH]ncc23)c2cc(CC(F)(F)F)c3ncccc3c2[nH]c1=O` [Compound C165, 3-Amino-4-(7-fluoro-1H-indazol-4-yl)-6-(2,2,2-trifluoroethyl)-1H-1,7-phenanthrolin-2-one] reads 7.1 nM; that for `Nc1c(-c2ccc(F)c3[nH]ncc23)c2cc(OC3CCC3)c3ncccc3c2[nH]c1=O` [Compound C18, 3-Amino-6-cyclobutyloxy-4-(7-fluoro-1H-indazol-4-yl)-1H-1,7-phenanthrolin-2-one], 2 nM; that for `Cc1cc2c(-c3ccc(Cl)c4[nH]ncc34)c(N)c(=O)[nH]c2c2ccccc12` [Compound B43, 3-Amino-4-(7-chloro-1H-indazol-4-yl)-6-methyl-1H-benzo[h]quinolin-2-one], 15 nM. The figure for `Cc1ccc2c(n1)c(C1CC1)cc1c(-c3ccc(F)c4[nH]ncc34)c(N)c(=O)[nH]c12` [Compound C182, 3-Amino-6-cyclopropyl-4-(7-fluoro-1H-indazol-4-yl)-8-methyl-1H-1,7-phenanthrolin-2-one] is 5.5 nM; for `Nc1c(-c2ccc(F)c3[nH]ncc23)c2cc(O[C@H]3C[C@@H](F)C3)c3nccnc3c2[nH]c1=O` [Compound G17, 8-Amino-5-((1s,3s)-3-fluorocyclobutyl)oxy-7-(7-fluoro-1H-indazol-4-yl)-10H-pyrido[2,3-f]quinoxalin-9-one] it is 0.85 nM. On to `COc1cc2c(-c3cc(F)c(F)c4[nH]ncc34)c(N)c(=O)[nH]c2c2cc(F)cnc12` [Compound F5, 3-Amino-4-(6,7-difluoro-1H-indazol-4-yl)-9-fluoro-6-methoxy-1H-1,7-phenanthrolin-2-one], for which the IC50 turned out to be 3.3 nM. Compared with the last compound, the IC50 is about 3.9-fold higher. The compound `Cc1cc2c(-c3cccc(O)c3)c(N)c(=O)[nH]c2c2ccccc12` [Compound B6, 3-Amino-4-(3-hydroxyphenyl)-6-methyl-1H-benzo[h]quinolin-2-one] yielded an IC50 of 7 nM. For the compound `Nc1c(-c2c(F)ccc3[nH]ncc23)c2cc(C3CC3)c3ncccc3c2[nH]c1=O` (atropisomer, axis not shown) [Compound C157, (R)-3-amino-6-cyclopropyl-4-(5-fluoro-1H-indazol-4-yl)-1H-1,7-phenanthrolin-2-one], the IC50 worked out at 310 nM. The result for `Nc1c(-c2ccc(F)c3[nH]ncc23)c2cc(OC3CCOCC3)c3ncccc3c2[nH]c1=O` [Compound C7, 3-Amino-4-(7-fluoro-1H-indazol-4-yl)-6-(oxan-4-yloxy)-1H-1,7-phenanthrolin-2-one] reads 1.2 nM; that for `C[C@H](Oc1cc2c(-c3ccc(F)c4[nH]ncc34)c(N)c(=O)[nH]c2c2cccnc12)C(F)(F)F` [Compound C22, 3-Amino-4-(7-fluoro-1H-indazol-4-yl)-6-[(2S)-1,1,1-trifluoropropan-2-yl]oxy-1H-1,7-phenanthrolin-2-one], 7.9 nM.

`Nc1c(-c2ccc(F)c3[nH]ncc23)c2cc(Br)c3cncnc3c2[nH]c1=O` [Compound J1, 8-Amino-5-bromo-7-(7-fluoro-1H-indazol-4-yl)-10H-pyrido[3,2-h]quinazolin-9-one] yielded a half-inhibitory concentration (IC50) of 7.3 nM. The IC50 values of the last two compounds are within 1.5-fold of each other. The result for `Nc1c(-c2ccc(Cl)c3[nH]ncc23)c2cc(OCCC(F)F)c(Cl)cc2[nH]c1=O` [Compound A9, 3-Amino-7-chloro-4-(7-chloro-1H-indazol-4-yl)-6-(3,3-difluoropropoxy)-1H-quinolin-2-one] reads 3.9 nM.

Take `COc1ccc2c(n1)c(OC(C)C)cc1c(-c3ccc(F)c4[nH]ncc34)c(N)c(=O)[nH]c12` [Compound T2, 3-Amino-4-(7-fluoro-1H-indazol-4-yl)-8-methoxy-6-propan-2-yloxy-1H-1,7-phenanthrolin-2-one]: the 50% inhibitory concentration (IC50) is 7.6 nM. The compound `CC(C)(O)COc1cc2c(-c3ccc(F)c4[nH]ncc34)c(N)c(=O)[nH]c2c2cccnc12` [Compound C24, 3-Amino-4-(7-fluoro-1H-indazol-4-yl)-6-(2-hydroxy-2-methylpropoxy)-1H-1,7-phenanthrolin-2-one] displayed an IC50 of 6.5 nM.

For `Nc1c(-c2ccc(F)c3[nH]ncc23)c2cc(C3CC(F)(F)C3)c3ncccc3c2[nH]c1=O` [Compound C164, 3-Amino-6-(3,3-difluorocyclobutyl)-4-(7-fluoro-1H-indazol-4-yl)-1H-1,7-phenanthrolin-2-one], the IC50 amounted to 8.6 nM. The IC50 values of the last two compounds are within 1.5-fold of each other. Compound `Nc1c(-c2ccc(F)c3[nH]ncc23)c2cc(N3CCC(N4CCOCC4)CC3)c3ncccc3c2[nH]c1=O` [Compound C117, 3-Amino-4-(7-fluoro-1H-indazol-4-yl)-6-(4-morpholin-4-ylpiperidin-1-yl)-1H-1,7-one] registered an IC50 of 3.5 nM. With `Nc1c(-c2ccc(F)c3[nH]ncc23)c2cc(OC[C@H]3CCCO3)c3ncccc3c2[nH]c1=O` [Compound C35, 3-Amino-4-(7-fluoro-1H-indazol-4-yl)-6-[[(2R)-oxolan-2-yl]methoxy]-1H-1,7-phenanthrolin-2-one], the IC50 was 4.4 nM. This IC50 and that of the compound before are within 1.5-fold of each other. The result for `N#CC1(Cc2cc3c(-c4ccc(F)c5[nH]ncc45)c(N)c(=O)[nH]c3c3cccnc23)CC1` [Compound C177, 1-[[3-Amino-4-(7-fluoro-1H-indazol-4-yl)-2-oxo-1H-1,7-phenanthrolin-6-yl]methyl]cyclopropane-1-carbonitrile] reads 2.1 nM; that for `Nc1c(-c2ccc(Cl)c3[nH]ncc23)c2cc(C3CCCC3)c3ccccc3c2[nH]c1=O` [Compound B40, 3-Amino-4-(7-chloro-1H-indazol-4-yl)-6-cyclopentyl-1H-benzo[h]quinolin-2-one], 13 nM.

Regarding `CN(C)C(=O)Cc1cc2c(-c3ccc(F)c4[nH]ncc34)c(N)c(=O)[nH]c2c2cccnc12` [Compound C93, 2-[3-Amino-4-(7-fluoro-1H-indazol-4-yl)-2-oxo-1H-1,7-phenanthrolin-6-yl]-N,N-dimethylacetamide], the 50% inhibitory concentration (IC50) was determined as 32 nM.

The values above are taken from patent publication US20260062412A1, “NITROGEN-CONTAINING HETEROCYCLIC COMPOUND HAVING MYT1 INHIBITORY ACTIVITY” (CHUGAI SEIYAKU KABUSHIKI KAISHA, priority 2023, published 2026).
